Results as given in ChEMBL document CHEMBL1135413, “Arylamidrazones as novel corticotropin releasing factor receptor antagonists” (J Med Chem, 2002).

Molecular target: T1, Corticotropin-releasing factor receptor 1 (Homo sapiens, UniProt P34998)
T1 sequence (P34998 whole entry): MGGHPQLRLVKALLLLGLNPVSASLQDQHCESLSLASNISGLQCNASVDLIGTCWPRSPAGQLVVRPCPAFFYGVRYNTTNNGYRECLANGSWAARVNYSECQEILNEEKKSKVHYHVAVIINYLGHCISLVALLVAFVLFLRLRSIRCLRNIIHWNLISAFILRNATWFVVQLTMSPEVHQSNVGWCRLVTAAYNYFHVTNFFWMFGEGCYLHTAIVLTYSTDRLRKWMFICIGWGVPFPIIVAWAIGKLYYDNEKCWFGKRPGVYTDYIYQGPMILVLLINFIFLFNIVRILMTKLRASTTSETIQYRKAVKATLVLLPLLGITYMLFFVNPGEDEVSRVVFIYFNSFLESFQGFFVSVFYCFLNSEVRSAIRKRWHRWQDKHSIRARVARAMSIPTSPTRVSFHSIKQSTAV
Assay: Binding affinity against human Corticotropin releasing factor receptor 1

CC(=O)C(=NNc1ccccc1Cl)Nc1cccc(Cl)c1
Ki: 417 nM

COc1cccc(NC(=NNc2ccccc2C)C(C)=O)c1
Ki: 1400 nM

CC(=O)/C(=N\c1ccccc1Cl)NNc1ccccc1C#N
Ki: > 10000 nM

CC(=O)C(=NNc1ccccc1S(N)(=O)=O)Nc1cccc(Cl)c1
Ki: > 10000 nM

CC(=O)C(=NNc1ccccc1C(F)(F)F)Nc1cccc(Cl)c1
Ki: 538 nM

CC(=O)/C(=N\c1cccc(F)c1)NNc1ccccc1Cl
Ki: 43 nM

CC(=O)C(=NNc1ccccc1C(F)(F)F)Nc1cccc(C(F)(F)F)c1
Ki: > 10000 nM

C#Cc1cccc(/N=C(/NNc2ccccc2Cl)C(C)=O)c1
Ki: 35 nM

CC(=O)/C(=N\c1cccc(C(F)(F)F)c1)NNc1ccccc1C
Ki: 291 nM

CC(=O)/C(=N\Nc1ccccc1Cl)N(C)c1cccc(Cl)c1
Ki: > 10000 nM

CC(=O)/C(=N\Nc1ccccc1C(F)(F)F)N(C)c1cccc(Cl)c1
Ki: > 10000 nM

CC(=O)/C(=N\c1ccc(Cl)cc1)NNc1ccccc1C
Ki: 1830 nM

CC(=O)/C(=N\c1cccc(F)c1)NNc1ccccc1C(F)(F)F
Ki: 197 nM

CC(=O)/C(=N\Nc1ccccc1C#N)Nc1ccc(Cl)cc1
Ki: 2210 nM

CC(=O)C(=NNc1ccccc1C#N)Nc1ccccc1
Ki: 1080 nM

CC(=O)/C(=N\Nc1ccccc1C)N(C)c1cccc(Cl)c1
Ki: > 10000 nM

CC(=O)/C(=N\Nc1ccccc1[N+](=O)[O-])Oc1cccc(Cl)c1
Ki: > 10000 nM

CC(=O)/C(=N\Nc1ccccc1)Nc1cccc(Cl)c1
Ki: 2720 nM

CC(=O)/C(=N\c1ccccc1)NNc1ccccc1C
Ki: 526 nM

CC(=O)/C(=N\c1ccccc1)NNc1ccccc1C(F)(F)F
Ki: 2260 nM

CC(=O)C(=NNc1ccccc1C(F)(F)F)Nc1ccccc1Cl
Ki: > 10000 nM

CC(=O)/C(=N\Nc1ccccc1C#N)N(C)c1cccc(Cl)c1
Ki: > 10000 nM

C#Cc1cccc(/N=C(/NNc2ccccc2C)C(C)=O)c1
Ki: 62 nM

CC(=O)/C(=N\c1ccc(Cl)cc1)NNc1ccccc1C(F)(F)F
Ki: > 10000 nM

CSc1cccc(N/C(=N/Nc2ccccc2C(F)(F)F)C(C)=O)c1
Ki: > 10000 nM

CC(=O)C(=NNc1ccccc1C(F)(F)F)Nc1cccc(C#N)c1
Ki: > 10000 nM

CC(=O)C(=NNc1ccccc1)Nc1ccccc1
Ki: 6230 nM

CC(=O)/C(=N\c1ccccc1Cl)NNc1ccccc1
Ki: > 10000 nM

COc1cccc(NC(=NNc2ccccc2)C(C)=O)c1
Ki: > 10000 nM

CC(=O)/C(=N\c1cccc(C)c1)NNc1ccccc1Cl
Ki: 115 nM

CC(=O)C(=NNc1ccccc1[N+](=O)[O-])Nc1cccc(Cl)c1
Ki: 51 nM

CC(=O)/C(=N\Nc1ccccc1C)Sc1cccc(Cl)c1
Ki: > 10000 nM

CC(=O)C(=NNc1ccccc1S(C)(=O)=O)Nc1cccc(Cl)c1
Ki: > 10000 nM

CSc1cccc(N/C(=N/Nc2ccccc2C)C(C)=O)c1
Ki: > 10000 nM

CCOc1cccc(N/C(=N/Nc2ccccc2C)C(C)=O)c1
Ki: > 10000 nM

CC(=O)/C(=N\c1cccc(C)c1)NNc1ccccc1C
Ki: 526 nM

C#Cc1cccc(NC(=NNc2ccccc2C(F)(F)F)C(C)=O)c1
Ki: 66 nM

CC(=O)/C(=N\Nc1ccccc1C#N)Nc1cccc(Cl)c1
Ki: 415 nM

CC(=O)/C(=N\Nc1ccccc1)N(C)c1cccc(Cl)c1
Ki: > 10000 nM

CC(=O)/C(=N\Nc1ccccc1Cl)Sc1cccc(Cl)c1
Ki: > 10000 nM

CSc1cccc(N/C(=N/Nc2ccccc2Cl)C(C)=O)c1
Ki: > 10000 nM

CC(=O)/C(=N\Nc1ccccc1C)Oc1cccc(Cl)c1
Ki: > 10000 nM

CC(=O)/C(=N\c1cccc(F)c1)NNc1ccccc1C
Ki: 43 nM

CC(=O)/C(=N\Nc1ccccc1)Oc1cccc(Cl)c1
Ki: > 10000 nM

CCOc1cccc(NC(=NNc2ccccc2C(F)(F)F)C(C)=O)c1
Ki: > 10000 nM

COc1cccc(N/C(=N/Nc2ccccc2C(F)(F)F)C(C)=O)c1
Ki: 6950 nM

CC(=O)/C(=N\Nc1ccccc1C(F)(F)F)Oc1cccc(Cl)c1
Ki: > 10000 nM

CCOc1cccc(NC(=NNc2ccccc2Cl)C(C)=O)c1
Ki: > 10000 nM

CC(=O)/C(=N\c1ccccc1Cl)NNc1ccccc1C
Ki: > 10000 nM

CC(=O)/C(=N\c1ccccc1Cl)NNc1ccccc1Cl
Ki: > 10000 nM

CC(=O)/C(=N\c1ccccc1)NNc1ccccc1Cl
Ki: 299 nM

COc1cccc(N/C(=N/Nc2ccccc2Cl)C(C)=O)c1
Ki: 652 nM

CC(=O)/C(=N\c1cccc(C#N)c1)NNc1ccccc1C
Ki: > 10000 nM

CC(=O)/C(=N\c1cccc(Cl)c1)NNc1ccc(Br)cc1
Ki: 1460 nM

CC(=O)/C(=N\Nc1ccccc1C#N)Oc1cccc(C)c1
Ki: 650 nM

CC(=O)/C(=N\c1ccc(Cl)cc1)NNc1ccccc1
Ki: > 10000 nM
